From PMC7359039, “Peptides based on the reactive center loop of Manduca sexta serpin-3 block its protease inhibitory function” (Scientific Reports, 2020)
Each block holds one molecule with its values, some of them ahead of it.

Key:
[1] = test system: proPO activation system in plasma (endogenous serpin-3); assay: proPO activation in plasma mixed directly with peptide; assay type: biochemical, Manduca sexta; conditions: plasma incubated with pre-dried peptide 1 h room temperature, then M. luteus 10 min; one unit = 0.001 change of OD470 per minute; mean ± SD, n = 4 larvae
Description: For an experiment to test the effects of peptide mixed directly to plasma samples, pre-dried Ac-SVAFS-NH2 (25 nmol) or TFE in wells of a 96-well plate were incubated with 5 μl plasma for 1 h at room temperature, followed by addition of 95 μl of 50 mM sodium phosphate buffer, pH 6.5 supplemented with or without 2 μg of M. luteus (Sigma). After incubation for 10 min at room temperature, PO activity was measured as described above. Three replicates with four different larval plasma samples were examined. Statistical analysis was done as described above.

serpin-3∆N [2] = assay: Blocking of serpin-3∆N inhibition of PAP3 by RCL-derived peptides (residual IEARase activity); assay type: biochemical, Manduca sexta; conditions: serpin-3∆N 135 ng, 37 °C 2 h; for PAP3 activity (percentage of IEARase activity) after treatment of serpin-3∆N with peptide: peptide 25 nmol pre-dried, then PAP3 108 ng 10 min room temperature, IEAR-pNA 50 µM, mean ± SD, n = 3; for blockage of serpin-3∆N inhibition of PAP3: peptide 25 nmol, PAP3 108 ng
Description: Peptides (25 nmol) in TFE or TFE alone as a control were applied to wells of a 96-well plate and allowed to dry (> 1 h). Serpin-3ΔN (135 ng/7.5 µl) was then added to the wells and incubated at 37 °C for 2 h. PAP3 (108 ng) supplemented with 18 μg bovine serum albumin (BSA) in 46.5 µl 20 mM Tris, 150 mM NaCl, pH 8.0,was then added to the wells and incubated for 10 min at room temperature. The PAP3 substrate N-acetyl-Ile-Glu-Ala-Arg-p-nitroanilide (IEAR-pNA) at 50 µM in 0.1 M Tris, 0.1 M NaCl, 5 mM CaCl2, pH 8.0 was then added, and residual PAP3 activity was measured by the change of absorbance at 405 nm over 20 min at room temperature. Percentage of IEARase activity was defined as IEARase activity divided by IEARase activity of PAP3 in the absence of serpin. One-way ANOVA with Tukey’s multiple comparison as post test was performed in GraphPad Prism. Samples for analysis by reducing SDS-PAGE and immunoblotting were prepared in a similar way. Peptides or TFE were dried in 1.5 mL microcentrifuge tubes and incubated with 7.5 µl serpin-3ΔN (135 ng) at 37 °C for 2 h, followed by addition of 46.5 µl PAP3 (108 ng) supplemented with 18 µg BSA. and further incubated for 10 min at room temperature. Samples were then analyzed by reducing SDS-PAGE and immunoblotting as described above.

[3] = Aqueous solubility of peptides (qualitative); assay type: physicochemical; conditions: qualitative statement
serpin-3∆N [4] = assay: SDS-PAGE and immunoblot of serpin-3∆N/PAP3 inhibitory complex formation in presence of peptides; assay type: biochemical, Manduca sexta; conditions: peptide 25 nmol, serpin-3∆N 135 ng 37 °C 2 h, PAP3 108 ng 10 min; reducing SDS-PAGE, serpin-3 antiserum
Description: Protein concentration was measured using Coomassie Plus Protein Assay Reagent (Thermo Scientific), with bovine serum albumin as a standard. Protein samples analyzed by SDS polyacrylamide gel electrophoresis were mixed with 2 × or 6 × SDS loading buffer (supplemented with β-mercaptoethanol) followed by heating at 95 °C for 5 min. Samples were loaded into wells of 4–12% Bis–Tris NuPAGE gels (Invitrogen) and separated by electrophoresis using MOPS buffer. The gels were stained using Instant Blue (Expedeon) or transferred to nitrocellulose in a semi-dry transfer cell (Bio-Rad). The presence of PAP3 or serpin-3ΔN on the membrane was detected using rabbit antisera to PAP3[31] or serpin-3[13], followed by goat anti-rabit IgG conjugated to alkaline phosphatase (BioRad) and colorimetric detection of immobilized alkaline phosphatase activity.
Peptides (25 nmol) in TFE or TFE alone as a control were applied to wells of a 96-well plate and allowed to dry (> 1 h). Serpin-3ΔN (135 ng/7.5 µl) was then added to the wells and incubated at 37 °C for 2 h. […] The PAP3 substrate N-acetyl-Ile-Glu-Ala-Arg-p-nitroanilide (IEAR-pNA) at 50 µM in 0.1 M Tris, 0.1 M NaCl, 5 mM CaCl2, pH 8.0 was then added, and residual PAP3 activity was measured by the change of absorbance at 405 nm over 20 min at room temperature. […] Samples were then analyzed by reducing SDS-PAGE and immunoblotting as described above.

serpin-3∆N [5] = assay: Time course of inactivation of serpin-3∆N by pentapeptides; assay type: biochemical, Manduca sexta; conditions: peptide 400 nmol, serpin-3∆N 720 ng, 37 °C; for suppression of serpin-3∆N inhibitory activity by 40 min: aliquots with 72 ng PAP3 10 min room temperature, IEARase activity
Description: To examine the time course of peptide interaction with serpin-3ΔN, pre-dried Ac-SVAFS-NH2 or Ac-SVAFS-COO^- (400 nmol) were incubated with 40 μL purified serpin-3ΔN (720 ng) supplemented with 40 μL BSA (80 μg) at 37 °C for 1 h. At 0, 10, 20, 40 and 60 min, 12 μL aliquots were withdrawn and immediately incubated with 72 ng of PAP3 at room temperature for 10 min, followed by measuring residual PAP3 activity with […] in 0.1 M Tris, 0.1 M NaCl, 5 mM CaCl2, pH 8.0.

[6] = test system: proPO activation system in plasma; assay: proPO activation in plasma with added serpin-3∆N, untreated or pre-incubated with peptide; assay type: biochemical, Manduca sexta; conditions: peptide 10 nmol pre-incubated with serpin-3∆N 0.1 µg at 37 °C 2 h, 2 µl plasma, one unit = 0.001 change of OD470 per minute, mean ± SD, n = 4 larvae
Description: Hemolymph was collected from day 2 fifth instar larvae and centrifuged at 12,000 rpm for 25 min at 4 °C to remove hemocytes, to prepare plasma samples containing the proPO activation system. To examine the effect of pre-incubation of peptide with serpin before exposure to plasma, Ac-SVAFS-COO^− (10 nmol in TFE) or TFE alone were dried in wells of a 96-well plate and then incubated with 4 µL serpin-3ΔN (0.1 µg) at 37 °C for 2 h, followed by incubation with 2 μl plasma at room temperature for 10 min. Then the proPO cascade was stimulated by addition of 1 μg Micrococcus luteus to activate the proPO protease cascade or filter-sterilized 0.85% NaCl as a control. These mixtures were incubated at room temperature for 10 min, and then PO activity was measured by adding 100 μl of 4 mM dopamine as substrate in 50 mM sodium phosphate, pH 6.5. PO activity was measured by detecting increase in absorbance at 470 nm. One unit of PO activity was defined as 1,000 × ∆A470/minute. Three replicates with four different larval plasma samples were examined. Paired one-way ANOVA with Tukey’s multiple comparison as post test was performed in GraphPad Prism.

serpin-3∆N [7] = assay: Circular dichroism thermal stability of serpin-3∆N and its binary complex with peptide; assay type: physicochemical, Manduca sexta; conditions: binary complex purified by gel permeation; 10 mM Tris, 5 mM NaCl, pH 8.0; 90 °C highest temperature tested
Description: To examine effects of RCL-derived peptides on serpin-3ΔN secondary structure, 600 µL serpin-3ΔN (150 μg) and 1.8 mL Ac-SVAFS-COO^− (25 μmol) were mixed and incubated at 37 °C for 2 h to allow formation of a serpin-peptide binary complex. Then the mixture was subjected to gel permeation chromatography using Superdex 200 10/300 GL ([…]) in 20 mM Tris–HCl, 150 mM NaCl, pH 8.0 to separate binary complex from free peptide. The fractions containing serpin-3ΔN, presumed to be in complex with peptide, were pooled and quantified. Ellipticity of serpin-3ΔN (0.149 mg/ml) or purified binary complex (0.129 mg/ml) in 10 mM Tris, 5 mM NaCl, pH 8.0 was measured in a 0.01 cm cuvette from 190 to 260 nm at 20 °C. The temperature was then increased in 10 °C increments, and the spectra were measured at each temperature from 20 to 90 °C. The ellipticity of the buffer was also recorded and subtracted from that of serpin-3ΔN and binary complex. The data were smoothed by the method of Savitzky-Golay with value of 15[33]. Mean residue ellipticity was calculated as (ellipticity × mean residue weight)/(10 × 0.01 cm × concentration). Three replicates were examined and results were visualized by GraphPad Prism (means ± standard deviation).

[8] = biological target: Manduca sexta prophenoloxidase activating protease 3 (PAP3), activated form (Manduca sexta)
[9] = biological target: Manduca sexta serpin-3∆N (Manduca sexta)
[10] = biological target: Manduca sexta serpin-3∆N (Manduca sexta); remark: listed apart in the source

Molecule: Ac-SVAFS-COO^−
PO activity in M. luteus-stimulated plasma with peptide-treated serpin-3∆N added [6]: 8.7 ± 2.8 unit | temperature up to which serpin-3∆N in complex with peptide showed little change in CD spectrum (serpin-3∆N [7]): ≥ 90 °C | aqueous solubility [3]: improved solubility | aqueous solubility ([3]; listed as five residue peptide SVAFS with only an N-terminal acetylated group): much more soluble | time after which inactivation of serpin-3∆N began to occur (serpin-3∆N [5]): ≤ 10 min | suppression of serpin-3∆N inhibitory activity by 40 min (serpin-3∆N [5]): ~ 100%

Molecule: Ac-SVAFSATQ-NH2 [Ac-SVAFSATQ-NH2]
residual PAP3 amidase (IEARase) activity after serpin-3∆N was pre-treated with 25 nmol peptide (37 °C, 2 h); the peptide blocks inhibition of PAP3 by serpin-3∆N [9]: 59%

Molecule: Ac-SVAFS-OH [Ac-SVAFS-COO^−]
time course (0-60 min at 37 °C, 400 nmol peptide) of suppression of serpin-3∆N inhibition of PAP3, read as PAP3 IEARase activity [10]: 100%

Molecule: Ac-SVAFS-NH2 [Ac-SVAFS-NH2]
time course (0-60 min at 37 °C, 400 nmol peptide) of suppression of serpin-3∆N inhibition of PAP3, read as PAP3 IEARase activity [10]: 100% | residual PAP3 amidase (IEARase) activity after serpin-3∆N was pre-treated with 25 nmol peptide (37 °C, 2 h); the peptide blocks inhibition of PAP3 by serpin-3∆N [9]: 100%

Further lines, with some results ahead:

PAP3 activity (percentage of IEARase activity) after treatment of serpin-3∆N with peptide (serpin-3∆N [2]): 100% ± 6% | blockage of serpin-3∆N inhibition of PAP3 (serpin-3∆N [2]): completely blocked | aqueous solubility [3]: very low
Molecule: Ac-SVAFS-NH2 [pentapeptide from serpin-3 RCL P14-P10, acetylated and amidated]
PO activity in plasma incubated with peptide, after addition of bacteria [1]: 10.7 ± 5.5 unit | ~75 kDa serpin-3∆N-PAP3 inhibitory complex on immunoblot (serpin-3∆N [4]): absence | time after which inactivation of serpin-3∆N began to occur (serpin-3∆N [5]): ≤ 10 min | suppression of serpin-3∆N inhibitory activity by 40 min (serpin-3∆N [5]): ~ 100%

residual PAP3 amidase (IEARase) activity on IEAR-pNA after 10 min with serpin-3∆N, percent of PAP3 without serpin [8]: 9%
Molecule: Manduca sexta serpin-3∆N (domain or fragment)

PAP3 activity (percentage of IEARase activity) after treatment of serpin-3∆N with peptide (serpin-3∆N [2]): 59% ± 5% | blockage of serpin-3∆N inhibition of PAP3 (serpin-3∆N [2]): about 50%
Molecule: Ac-SVAFSATQ-NH2 [octapeptide from serpin-3 RCL P14-P7]
